Source: ChEMBL document CHEMBL1201862, “PubChem BioAssay data set” (2004)
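Following 48 hours of exposure in 96-well plates, responses at five concentrations were used to interpolate endpoints linearly. Abbreviation: GI50, concentration required for 50% inhibition of growth.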 Activity calls are given as the source filed them. Cut-off read from the data, not from the text of the source: active = GI50 up to about 1.1 µM and inactive = higher.

Columns and labels:
Experiment in all cases: NCI-60 cell line screen, 48 h
[1] = system: UO-31
[2] = system: HCT-116
[3] = system: SK-MEL-28
[4] = system: BT-549
[5] = system: SF-295
[6] = system: PC-3
[7] = system: SF-539
[8] = system: NCI-H522
[9] = system: HOP-92
[10] = system: SR
[11] = system: HCT-15
[12] = system: CAKI-1
[13] = system: MCF7
[14] = system: HCC 2998
[15] = system: SK-MEL-2
[16] = system: A549
[17] = system: NCI-H23
[18] = system: NCI-H460
[19] = system: SW-620

Row | SMILES | GI50 [1] | GI50 [2] | GI50 [3] | GI50 [4] | GI50 [5] | GI50 [6] | GI50 [7] | GI50 [8] | GI50 [9] | GI50 [10] | GI50 [11] [µM] | GI50 [12] | GI50 [13] | GI50 [14] | GI50 [15] | GI50 [16] | GI50 [17] | GI50 [18] | GI50 [19]
1 | CCOc1cc2c(cc1O)CC[C@@H]1[C@@H]2CC[C@]2(C)[C@@H](O)CC[C@@H]12 | 0.256 µM (active) | 0.0234 µM (active) | 0.443 µM (active) | 0.0125 µM (active) | 0.138 µM (active) | 1.62 µM (inactive) | 0.0158 µM (active) | < 0.0117 µM (active) | 0.0537 µM (active) | < 0.0192 µM (active) | < 0.0138 | 0.0644 µM (active) | 0.0287 µM (active) | 0.532 µM (active) | 0.118 µM (active) | 0.0378 µM (active) | 0.0667 µM (active) | 0.0228 µM (active) | 0.0183 µM (active)
2 | COc1ccc(CCNC(=O)Cc2cc(OC)c(OC)cc2CO)cc1OC | > 100 µM (inactive) | > 100 µM (inactive) | > 100 µM (inactive) | > 100 µM (inactive) | > 100 µM (inactive) | > 100 µM (inactive) | > 100 µM (inactive) | > 100 µM (inactive) | > 100 µM (inactive) | > 100 µM (inactive) | > 100 | > 100 µM (inactive) | > 100 µM (inactive) | > 100 µM (inactive) | > 100 µM (inactive) | > 100 µM (inactive) | > 100 µM (inactive) | > 100 µM (inactive) | > 100 µM (inactive)
3 | COc1ccc(-c2coc3c4c(ccc3c2=O)OCO4)cc1OC | 99.8 µM (inactive) | > 100 µM (inactive) | > 100 µM (inactive) | 14.9 µM (inactive) | 27.9 µM (inactive) | > 100 µM (inactive) | 40.6 µM (inactive) | 56.9 µM (inactive) | 36.3 µM (inactive) | 8.87 µM (inactive) | 18 | 91.6 µM (inactive) | 91 µM (inactive) | > 100 µM (inactive) | 65.3 µM (inactive) | 55.6 µM (inactive) | 25 µM (inactive) | 57.8 µM (inactive) | > 100 µM (inactive)
4 | O=C1CC(NC2CC(=O)c3c(Br)sc(Br)c32)c2c(Br)sc(Br)c21 (stereo not given) | 2.24 µM (inactive) | 2.14 µM (inactive) | 7.85 µM (inactive) | 14.1 µM (inactive) | 13.6 µM (inactive) | 2.48 µM (inactive) | 1.27 µM (inactive) | 1.81 µM (inactive) | 6 µM (inactive) | 2.28 µM (inactive) | 2.94 | 3.63 µM (inactive) | 2.81 µM (inactive) | 17 µM (inactive) | 3.51 µM (inactive) | 17.5 µM (inactive) | 9.48 µM (inactive) | 18 µM (inactive) | 2.08 µM (inactive)
5 | C/N=c1\sc2nc(C#N)c(C#N)nc2n1C | 20.4 µM (inactive) | 18.9 µM (inactive) | 29.2 µM (inactive) | 28.8 µM (inactive) | 18 µM (inactive) | 40.2 µM (inactive) | 38.7 µM (inactive) | 15 µM (inactive) | 21.2 µM (inactive) | > 57 µM (inactive) | 19.2 | 23.8 µM (inactive) | 18.5 µM (inactive) | 25.5 µM (inactive) | 16.5 µM (inactive) | 18 µM (inactive) | 18.3 µM (inactive) | 19.1 µM (inactive) | 18.4 µM (inactive)
6 | Cc1cccc(C(C)C)c1NC(=O)C(=O)CC(=O)c1sc(Nc2ccccc2Cl)nc1C | 18.9 µM (inactive) | 8.79 µM (inactive) | > 100 µM (inactive) | 32.7 µM (inactive) | 12.9 µM (inactive) | 22.4 µM (inactive) | 4 µM (inactive) | 40.5 µM (inactive) | 10.4 µM (inactive) | 18.2 µM (inactive) | 30.9 | 85.3 µM (inactive) | 10.3 µM (inactive) | 11.6 µM (inactive) | 12.8 µM (inactive) | 31.4 µM (inactive) | 35 µM (inactive) | 22.1 µM (inactive) | 35.2 µM (inactive)
7 | COC(=O)c1c(C(=O)OC)c2c3ccccc3n(C)c2c2c1c1ccccc1n2C | 16.2 µM (inactive) | > 100 µM (inactive) | > 100 µM (inactive) | > 100 µM (inactive) | 91.4 µM (inactive) | 54.6 µM (inactive) | 45.9 µM (inactive) | 58.1 µM (inactive) | > 100 µM (inactive) | > 100 µM (inactive) | > 100 | > 100 µM (inactive) | > 100 µM (inactive) | > 100 µM (inactive) | 46.8 µM (inactive) | 65.2 µM (inactive) | > 100 µM (inactive) | > 100 µM (inactive) | > 100 µM (inactive)
8 | CCN(C(=O)N[C@@H](CC(C)C)C(=O)NCC(=O)OC)c1ccccc1 | > 100 µM (inactive) | > 100 µM (inactive) | 38.3 µM (inactive) | > 100 µM (inactive) | > 100 µM (inactive) | > 100 µM (inactive) | 41 µM (inactive) | > 100 µM (inactive) | > 100 µM (inactive) | > 100 µM (inactive) | > 100 | > 100 µM (inactive) | > 100 µM (inactive) | > 100 µM (inactive) | 61.4 µM (inactive) | > 100 µM (inactive) | > 100 µM (inactive) | 85.7 µM (inactive) | > 100 µM (inactive)
9 | O=C(NN1C(=O)C(Cl)C1c1ccc(Cl)cc1)c1c(Cl)c(Cl)c(Cl)c(Cl)c1-c1nc2ccccc2[nH]1 (stereo not given) | 22.6 µM (inactive) | 15.5 µM (inactive) | 16.9 µM (inactive) | 24.4 µM (inactive) | 23.9 µM (inactive) | 25.6 µM (inactive) | 32.4 µM (inactive) | 13.8 µM (inactive) | 13.5 µM (inactive) | 16.6 µM (inactive) | 17.6 | 3.73 µM (inactive) | 12.7 µM (inactive) | 15.1 µM (inactive) | 21.8 µM (inactive) | 26.4 µM (inactive) | 21.5 µM (inactive) | 16.7 µM (inactive) | 23.1 µM (inactive)
10 | Oc1cccc(-c2cc(=S)ss2)c1 | 14.3 µM (inactive) | 17.9 µM (inactive) | 19.7 µM (inactive) | 16.7 µM (inactive) | 14.3 µM (inactive) | 14.4 µM (inactive) | 19.5 µM (inactive) | 6.89 µM (inactive) | 13.9 µM (inactive) | 2.76 µM (inactive) | 15.1 | 18.2 µM (inactive) | 12.8 µM (inactive) | 17.7 µM (inactive) | 15.6 µM (inactive) | 18.5 µM (inactive) | 8.79 µM (inactive) | 17.1 µM (inactive) | 18.5 µM (inactive)
11 | NC1CC(=O)c2csc(Br)c21 (stereo not given) | 16 µM (inactive) | 11.2 µM (inactive) | 18.5 µM (inactive) | 11.8 µM (inactive) | 35.2 µM (inactive) | 14 µM (inactive) | 2.52 µM (inactive) | 2.05 µM (inactive) | 9.89 µM (inactive) | 5.09 µM (inactive) | 7.71 | 10.9 µM (inactive) | 21.1 µM (inactive) | 18.5 µM (inactive) | 16 µM (inactive) | 36.7 µM (inactive) | 17.1 µM (inactive) | 20.3 µM (inactive) | 4.84 µM (inactive)
12 | COc1cccc(-c2nc(N)c(C#N)c3c2CCS(=O)(=O)c2ccc(C)cc2-3)c1 | 40.3 µM (inactive) | 20 µM (inactive) | > 78.5 µM (inactive) | 52 µM (inactive) | 23.6 µM (inactive) | 15.8 µM (inactive) | 33.6 µM (inactive) | 2.68 µM (inactive) | 68.7 µM (inactive) | 1.26 µM (inactive) | 7.87 | 9.98 µM (inactive) | 37.9 µM (inactive) | 17.6 µM (inactive) | 38.3 µM (inactive) | 11.6 µM (inactive) | 43.1 µM (inactive) | 10.8 µM (inactive) | > 34.1 µM (inactive)
13 | CC(NNC(=O)c1cc[n+]([BH2-]C#N)cc1)C(F)(F)F (stereo not given) | > 100 µM (inactive) | > 100 µM (inactive) | > 100 µM (inactive) | > 100 µM (inactive) | > 100 µM (inactive) | > 100 µM (inactive) | > 100 µM (inactive) | > 100 µM (inactive) | > 100 µM (inactive) | > 100 µM (inactive) | > 100 | > 100 µM (inactive) | > 100 µM (inactive) | > 100 µM (inactive) | > 100 µM (inactive) | > 100 µM (inactive) | > 100 µM (inactive) | > 100 µM (inactive) | > 100 µM (inactive)
14 | CC1(C)CC[C@]2(C(=O)O)CC[C@]3(C)C(=CC[C@@H]4[C@@]5(C)C[C@H](O)[C@H](O)[C@@](C)(C(=O)O)[C@@H]5CC[C@]43C)[C@@H]2C1 | > 100 µM (inactive) | > 100 µM (inactive) | > 100 µM (inactive) | > 100 µM (inactive) | > 100 µM (inactive) | > 100 µM (inactive) | > 100 µM (inactive) | > 100 µM (inactive) | > 100 µM (inactive) | > 100 µM (inactive) | > 100 | > 100 µM (inactive) | > 100 µM (inactive) | > 100 µM (inactive) | > 100 µM (inactive) | > 100 µM (inactive) | > 100 µM (inactive) | > 100 µM (inactive) | > 100 µM (inactive)
15 | COC(=O)NCCc1n[nH]c2c1C(=O)C=C(Nc1ccccc1OC)C2=O | 42.2 µM (inactive) | 18.9 µM (inactive) | 38.4 µM (inactive) | 25 µM (inactive) | 44.5 µM (inactive) | 31.6 µM (inactive) | 17.5 µM (inactive) | 24.1 µM (inactive) | 41.7 µM (inactive) | 28.5 µM (inactive) | 28.4 | 33.9 µM (inactive) | 16 µM (inactive) | 17.7 µM (inactive) | 22.2 µM (inactive) | 41.2 µM (inactive) | 16 µM (inactive) | 28.2 µM (inactive) | 20.8 µM (inactive)
